Data: patent US9193718B2, “Quinazoline derivative and application thereof” (FUJIAN INSTITUTE OF RESEARCH ON THE STRUCTURE OF MATTER, …, priority 2012, dated 2015)

Target: T1, Tyrosine kinase (EGFR) (Homo sapiens, UniProt P00533)
T1 construct: made in house
Assay: EGFR tyrosine kinase inhibition by Enzyme-Linked Immunosorbent assay
Format: biochemical
Conditions: compound at a concentration of 100 μM; ATP 5 μM; substrate poly(Glu,Tyr)4:1
Text: Tyrosine kinase (EGFR) was expressed using a baculovirus expression system, and purified by using a Ni-NTA affinity chromatography. After tested, it was consistent with experimental standard. Poly(Glu,Tyr)4:1 (Sigma), Monoclonal Anti-Phosphotyrosine antibody PY99 (Santa Cruz), horseradish peroxidase-labeled goat anti-mouse IgG (Calbiochem), ATP, DTT, OPD (Amresco), microplates (Corning). Other reagents were all commercially available with analytical grade purity, which were not treated before use if no special instructions present. Isopropanol was dried with molecular sieves before use.
Quinazoline compounds represented by formula (I) and their pharmaceutically acceptable salts according to the present invention are used as EGFR inhibitors. The activity of the particularized compounds for inhibiting EGFR was determined by Enzyme-Linked Immunosorbent assay.
Detailed experimental procedure is as follows:
(1) Kinase reaction substrate poly(Glu,Tyr)4:1 was diluted to 20 μg/mL with potassium-free PBS, and the microplates were coated. After the reaction was for 12-16 h at 37° C., the liquid in the wells was removed.
(2) The plates were washed with T-PBS for three times, 10 min each time.
(3) The microplates were dried in an oven at 37.
(4) The samples to be tested were added into the wells of the coated microplates (wherein the samples to be tested were formulated to a 1×10^−2M stock solution with DMSO, and diluted to the desired concentration with reaction buffer before use. The resulted solution was added into the wells and then allowed to achieve the corresponding final concentration in 100 μL reaction system.
(5) the addition of ATP and tested tyrosine kinases
ATP solution diluted with reaction buffer (the final concentration of ATP is 5 μM) and the tested tyrosine kinases solution diluted with reaction buffer were added. The total volume of the reaction is 100 μL. Meanwhile the negative control wells and the control wells without enzyme were set up.
(6) The reaction system was placed in a wet box, and shaked for 1 hour at 37° C. shielding from light. After the reaction was complete, the plates were washed with T-PBS for three times.
(7) Antibody PY99 was added into each well (100 μL/well); and the plates were shaked for 30 min at 37° C. After the reaction was complete, the plates were washed with T-PBS for three times.
(8) 100 μL horseradish peroxidase-labeled goat anti-mouse IgG was added into each well, and the plates were shaked for 30 min at 37° C. The plates were washed with T-PBS for three times.
(9) 100 μL OPD developing liquid was added in each well, and was reacted for 1-10 min at room temperature shielding from light.
(10) 2M H2SO4 was added into each well to terminate the reaction. A490 value was determined using wavelength-tunable microplate reader. The inhibition ratio can be calculated by the following formula: […]
According to the above-described activity test method, the activity of inhibiting EGFR enzyme of the compounds represented by formula (I) or salts thereof were calculated.

Molecule	EGFR inhibition rate (%)
c1ccc(-c2cc(COc3ncnc4ccccc34)on2)cc1 [Compound Q-1, 4-((3-phenyl-isoxazol-5-yl)-methoxy-)-quinazoline]	18.0
COc1ccc(-c2cc(COc3ncnc4ccccc34)on2)cc1 [Compound Q-3]	7.3
Clc1ccccc1-c1cc(COc2ncnc3ccccc23)on1 [Compound Q-4]	25.8
Clc1ccc(-c2cc(COc3ncnc4ccccc34)on2)cc1 [Compound Q-5]	16.7
Clc1ccc(-c2cc(COc3ncnc4ccccc34)on2)c(Cl)c1 [Compound Q-6]	22.7
Brc1ccc(-c2cc(COc3ncnc4ccccc34)on2)cc1 [Compound Q-7]	15.7
COc1cc2ncnc(OCc3cc(-c4ccccc4)no3)c2cc1OC [Compound Q-15, 6,7-dimethoxy-4-((3-phenyl-isoxazol-5-yl)-methoxy-)-quinazoline]	30.7
COc1ccc(-c2cc(COc3ncnc4cc(OC)c(OC)cc34)on2)cc1 [Compound Q-17]	47.0
COc1cc2ncnc(OCc3cc(-c4ccccc4Cl)no3)c2cc1OC [Compound Q-18]	1.2
COc1cc2ncnc(OCc3cc(-c4ccc(Cl)cc4)no3)c2cc1OC [Compound Q-19]	14.5
COc1cc2ncnc(OCc3cc(-c4ccc(Cl)cc4Cl)no3)c2cc1OC [Compound Q-20]	29.8
COc1cc2ncnc(OCc3cc(-c4ccc(Br)cc4)no3)c2cc1OC [Compound Q-21]	30.9
COCCOc1cc2ncnc(OCc3cc(-c4ccccc4)no3)c2cc1OCCOC [Compound Q-29, (6,7-bis(2-methoxyethoxy))-4-((3-phenyl-isoxazol-5-yl)-methoxy-)-quinazoline]	27.7
COCCOc1cc2ncnc(OCc3cc(-c4ccc(C)cc4)no3)c2cc1OCCOC [Compound Q-30, (6,7-bis(2-methoxyethoxy))-4-((3-(4-methylphenyl)-isoxazol-5-yl)-methoxy-)-quinazoline]	20.4
COCCOc1cc2ncnc(OCc3cc(-c4ccc(OC)cc4)no3)c2cc1OCCOC [Compound Q-31]	38.2
COCCOc1cc2ncnc(OCc3cc(-c4ccccc4Cl)no3)c2cc1OCCOC [Compound Q-32]	11.8
COCCOc1cc2ncnc(OCc3cc(-c4ccc(Cl)cc4Cl)no3)c2cc1OCCOC [Compound Q-34, (6,7-bis(2-methoxyethoxy))-4-((3-(2,4-dichlorophenyl)-isoxazol-5-yl)-methoxy-)-quinazoline]	7.8
COCCOc1cc2ncnc(OCc3cc(-c4ccc(Br)cc4)no3)c2cc1OCCOC [Compound Q-35]	6.4
(6,7-bis(2-methoxyethoxy))-4-((3-(4-chlorophenyl)-isoxazol-5-yl))-methoxy-)-quinazoline [Compound Q-33]	14.1
